Source: patent US7332317B2, “Phosphodiesterase and genes thereof” (Tanabe Seiyaku Co., Ltd., priority 1999, dated 2008)
“And” between values parts separate entries of the source, which are not always exact repeats. Equal entries are not always repeated. Where two headings read alike, the source gives them in different places.

Columns and labels:
human PDE11A2 [1] = molecular target: T1, human PDE11A2 (Homo sapiens, UniProt Q9HCR9, DUP921-921); test: Inhibition of human PDE11A2 activity by known PDE inhibitors (radio-labeled nucleotide method)
human PDE11A1 [2] = molecular target: T2, human PDE11A1 (Homo sapiens, UniProt Q9HCR9, DUP921-921/R184Q); test: Inhibition of human PDE11A1 activity by known PDE inhibitors (radio-labeled nucleotide method)
human PDE11A2 [3] = molecular target: T1, human PDE11A2; test: Kinetic analysis of cAMP/cGMP hydrolysis by human PDE11A2 (Lineweaver-Burk plot); type: biochemical; design: inserted into a BamHI-XhoI site of an expression vector, pHis, to obtain a vector plasmid pHis-PDE11T for PDE11A2 expression; made in house; host or cells: COS-7 cells; conditions: labelled substance as substrate, 0.1 to 10 μM
human PDE11A1 [4] = molecular target: T2, human PDE11A1; test: Kinetic analysis of cAMP/cGMP hydrolysis by human PDE11A1 (Lineweaver-Burk plot); type: biochemical; design: inserted into a BamHI-XhoI site of an expression vector, pcDNA4/HisMaxC; made in house; host or cells: COS-7 cells; conditions: labelled substance as substrate, 0.1 to 10 μM
human PDE11 = test: Influence of cGMP on cAMP hydrolysis activity and of cAMP on cGMP hydrolysis activity; type: biochemical; conditions: 3.5 μM unlabeled cAMP; 0.01-100 μM cGMP added; PDE11A1 and PDE11A2, FIG. 3
[5] = read-out: IC50 value for human PDE11A2 activity, effect on cGMP hydrolysis activity, substrate 1.3 μM unlabeled cGMP, inhibitor 0-100 μM, recombinant enzyme from COS-7 cells
[6] = read-out: IC50 value for human PDE11A1 activity, effect on cGMP hydrolysis activity, substrate 1.3 μM unlabeled cGMP, inhibitor 0-100 μM, recombinant enzyme from COS-7 cells

T1 sequence (Q9HCR9 with tags, fused parts or gaps isoform Q9HCR9-2 DUP671-671): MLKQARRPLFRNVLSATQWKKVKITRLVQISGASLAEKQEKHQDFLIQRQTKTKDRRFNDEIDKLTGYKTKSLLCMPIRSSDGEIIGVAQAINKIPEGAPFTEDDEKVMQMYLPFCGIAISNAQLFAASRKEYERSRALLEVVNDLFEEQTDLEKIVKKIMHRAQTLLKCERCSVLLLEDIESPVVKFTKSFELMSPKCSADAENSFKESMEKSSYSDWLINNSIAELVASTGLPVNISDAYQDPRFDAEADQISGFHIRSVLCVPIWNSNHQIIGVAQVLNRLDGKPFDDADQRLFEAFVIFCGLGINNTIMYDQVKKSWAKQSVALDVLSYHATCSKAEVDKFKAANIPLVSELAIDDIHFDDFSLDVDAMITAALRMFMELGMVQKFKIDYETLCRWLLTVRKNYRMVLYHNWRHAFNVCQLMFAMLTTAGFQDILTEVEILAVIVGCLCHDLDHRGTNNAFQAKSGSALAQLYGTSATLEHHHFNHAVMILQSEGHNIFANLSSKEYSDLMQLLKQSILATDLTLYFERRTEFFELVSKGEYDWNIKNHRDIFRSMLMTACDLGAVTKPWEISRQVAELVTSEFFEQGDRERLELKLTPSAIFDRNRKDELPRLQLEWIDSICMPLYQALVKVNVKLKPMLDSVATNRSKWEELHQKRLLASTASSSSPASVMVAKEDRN
T2 sequence (Q9HCR9 with tags, fused parts or gaps R184Q/DUP921-921): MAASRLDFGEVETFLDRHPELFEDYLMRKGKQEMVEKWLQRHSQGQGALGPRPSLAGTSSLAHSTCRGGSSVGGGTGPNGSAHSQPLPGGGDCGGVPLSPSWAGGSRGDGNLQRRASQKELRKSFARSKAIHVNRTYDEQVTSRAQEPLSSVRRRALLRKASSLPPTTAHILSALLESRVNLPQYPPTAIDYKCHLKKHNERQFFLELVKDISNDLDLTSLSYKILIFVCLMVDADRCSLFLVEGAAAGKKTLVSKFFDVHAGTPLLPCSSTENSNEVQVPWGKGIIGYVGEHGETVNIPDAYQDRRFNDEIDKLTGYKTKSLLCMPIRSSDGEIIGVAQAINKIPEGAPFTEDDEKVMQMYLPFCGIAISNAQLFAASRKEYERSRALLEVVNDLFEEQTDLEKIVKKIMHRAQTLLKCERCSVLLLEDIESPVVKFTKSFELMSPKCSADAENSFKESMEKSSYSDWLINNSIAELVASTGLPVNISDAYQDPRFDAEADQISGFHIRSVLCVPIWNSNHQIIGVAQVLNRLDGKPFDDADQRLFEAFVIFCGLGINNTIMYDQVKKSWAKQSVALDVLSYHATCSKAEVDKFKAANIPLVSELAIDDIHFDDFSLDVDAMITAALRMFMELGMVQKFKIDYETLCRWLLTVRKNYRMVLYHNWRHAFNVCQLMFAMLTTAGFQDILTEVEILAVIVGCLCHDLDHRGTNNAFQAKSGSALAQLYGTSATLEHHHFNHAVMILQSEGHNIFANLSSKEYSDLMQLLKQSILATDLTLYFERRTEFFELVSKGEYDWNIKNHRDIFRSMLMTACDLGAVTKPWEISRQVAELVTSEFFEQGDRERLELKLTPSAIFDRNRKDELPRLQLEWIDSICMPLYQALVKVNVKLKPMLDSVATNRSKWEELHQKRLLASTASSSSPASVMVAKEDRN

Compound | IC50 (human PDE11A2 [1]) | IC50 (human PDE11A1 [2]) | IC50 (human PDE11A1 [2]; [6]) | further results
CC(C)Cn1c(=O)n(C)c(=O)c2[nH]cnc21 [IBMX, 3-isobutyl-1-methylxanthine] | 30 µM and 38 µM | 65 µM and 81 µM | – | –
Cc1[nH]c(=O)c(C#N)cc1-c1ccncc1 [Milrinone] | > 100 µM | > 100 µM | > 100 µM | IC50 (human PDE11A2 [1]; [5]): > 100 µM
COc1ccc(C2CNC(=O)C2)cc1OC1CCCC1 (centres unmarked) [Rolipram] | > 100 µM | > 100 µM | > 100 µM | IC50 (human PDE11A2 [1]; [5]): > 100 µM
CCOC(=O)C1=C[C@]2(CC)CCCN3CCc4c(n1c1ccccc41)[C@@H]32 [Vinpocetine] | 49 µM and 68 µM | > 100 µM | > 100 µM | –
Nc1ncnc2c1ncn2[C@@H]1O[C@@H]2COP(=O)(O)O[C@H]2[C@H]1O [cAMP] | – | – | – | Vmax of human PDE11A2 (human PDE11A2 [3]): 9.63±1.88 pmol/min/μg protein
Nc1nc2c(ncn2[C@@H]2O[C@@H]3COP(=O)(O)O[C@H]3[C@H]2O)c(=O)[nH]1 [cGMP] | – | – | – | Km (human PDE11A1 [4]): 1.43 ± 0.109 µM; Vmax of human PDE11A1 (human PDE11A1 [4]): 121±8.08 pmol/min/μg of protein; cAMP hydrolysis activity (relative value %) on addition of cGMP (human PDE11): lowered depending on a concentration of cGMP added; Km (human PDE11A2 [3]): 1.47 ± 0.115 µM; Vmax of human PDE11A2 (human PDE11A2 [3]): 4.02±0.214 pmol/min/μg protein

The next lines start with results.

IC50 (human PDE11A2 [1]) | IC50 (human PDE11A1 [2]) | IC50 (human PDE11A1 [2]; [6]) | Compound | further results
11 µM and 8.6 µM | 22 µM and 25 µM | – | CN1C(=O)c2[nH]c(Cc3ccc(C(F)(F)F)cc3)nc2N2C1=N[C@@H]1CCC[C@@H]12 (single isomer, unassigned) [SCH51866, (+)-cis-5-methyl-2-[4-(trifluoromethyl)benzyl]-3,4,5,6a,7,8,9,9a-octahydrocyclopent[4,5]imidazo-[2,1-b]purin-4-one] | –
0.88 µM and 0.66 µM | 1.8 ± 0.33 µM | – | O=C(O)C1CCN(c2nc(NCc3ccc4c(c3)OCO4)c3cc(Cl)ccc3n2)CC1 [E4021, sodium 1-[6-chloro-4-(3,4-methylenedioxybenzyl)aminoquinazolin-2-yl]pyperidine-4-carboxylate] | –
